Test results reported in patent publication US20050060764A1, “Mouse model for bone metabolism” (priority 2003, published 2005).
Strand notation (5' to 3'): a small letter for the sugar, then the base; units joined by * are phosphorothioate-linked, units joined directly phosphodiester-linked; [ ] holds rarer units or linkages, { } end groups; capitals alone tell only the bases. e = 2'-O-(2-methoxyethyl) (MOE); [5mC] = 5-methylcytosine; d = 2'-deoxy (DNA)

System: rat RANKL mRNA
Test: Antisense inhibition of rat RANKL mRNA levels in UMR-106 cells, quantitative real-time PCR (Table 3)
Type: cell-based
Parameters: concentration or dose not given beside the values
Settings: averages from three experiments
Procedure: Cells were seeded onto 24-well plates (Falcon-353047) at a density of […] for use in antisense oligonucleotide transfection.
Cells are treated and data are obtained in triplicate. […] Cells were harvested 16-24 hours after oligonucleotide treatment.
PCR reagents were obtained from Invitrogen Corporation, (Carlsbad, Calif.).
Probes and primers to rat RANKL were designed to hybridize to a rat RANKL sequence, using published sequence information (GenBank accession number NM_057149.1, incorporated herein as SEQ ID NO:18). For rat RANKL the PCR primers were: • forward primer: […] (SEQ ID NO:19) • reverse primer: […] (SEQ ID NO: 20) and the • PCR probe was: FAM-[…]-TAMRA (SEQ ID NO: 21) where FAM is the fluorescent reporter dye and TAMRA is the quencher dye. For rat GAPDH the PCR primers were: • forward primer: […](SEQ ID NO:22) • reverse primer: […](SEQ ID NO:23) and the • PCR probe was: 5′ JOE-[…]-TAMRA 3′ (SEQ ID NO: 24) where JOE is the fluorescent reporter dye and TAMRA is the quencher dye.
In accordance with the present invention, a second series of antisense compounds was designed to target different regions of the rat RANKL RNA, using published sequences (GenBank accession number NM_057149.1, incorporated herein as SEQ ID NO: 18, and GenBank accession number AF425669.1, incorporated herein as SEQ ID NO: 200). […] All cytidine residues are 5-methylcytidines. […] If present, “N.D.” indicates “no data”.

| Substance | % INHIB (inhibition of rat RANKL mRNA levels) |
| --- | --- |
| gcgcaggtacttgccgtagt (antisense eG*e[5mC]*eG*e[5mC]*eA*dG*dG*dT*dA*d[5mC]*dT*dT*dG*d[5mC]*d[5mC]*eG*eT*eA*eG*eT) [ISIS 286587, 2′-MOE gapmer targeted to rat RANKL] | at least 40% |
| cgcgtgctgtcttctgatat (e[5mC]*eG*e[5mC]*eG*eT*dG*d[5mC]*dT*dG*dT*d[5mC]*dT*dT*d[5mC]*dT*eG*eA*eT*eA*eT; antisense) [ISIS 286599, 2′-MOE gapmer targeted to rat RANKL] | at least 40% |
| 286615 (antisense eT*eA*eG*eA*eG*dA*dT*d[5mC]*dT*dT*dG*dG*d[5mC]*d[5mC]*d[5mC]*eA*eG*e[5mC]*e[5mC]*eT) [compound 286615] | 45% |
| acagagcgatgctgcagacc (antisense eA*e[5mC]*eA*eG*eA*dG*d[5mC]*dG*dA*dT*dG*d[5mC]*dT*dG*d[5mC]*eA*eG*eA*e[5mC]*e[5mC]) [ISIS 286589, 2′-MOE gapmer targeted to rat RANKL] | at least 40% |
| ctctgcaatgtaacggtacc (e[5mC]*eT*e[5mC]*eT*eG*d[5mC]*dA*dA*dT*dG*dT*dA*dA*d[5mC]*dG*eG*eT*eA*e[5mC]*e[5mC]; antisense) [ISIS 286652, 2′-MOE gapmer targeted to rat RANKL] | at least 40% |
| 286609 (antisense eG*e[5mC]*eA*eG*e[5mC]*dA*dT*dT*dG*dA*dT*dG*dG*dT*dG*eA*eG*eG*eT*eG) [compound 286609] | 17% |
| 286591 (antisense eA*eA*eG*eT*eA*d[5mC]*dA*dG*dG*dA*dA*d[5mC]*dA*dG*dA*eG*e[5mC]*eG*eA*eT) [compound 286591] | 17% |
| aaagccccaaagtacgtcgc (eA*eA*eA*eG*e[5mC]*d[5mC]*d[5mC]*d[5mC]*dA*dA*dA*dG*dT*dA*d[5mC]*eG*eT*e[5mC]*eG*e[5mC]; antisense) [ISIS 286640, 2′-MOE gapmer targeted to rat RANKL] | at least 40% |
| 286656 (eT*eT*eT*eT*eG*d[5mC]*dA*d[5mC]*dA*dG*dA*dA*dA*dA*d[5mC]*e[5mC]*eT*eT*eA*e[5mC]; antisense) [compound 286656] | 12% |
| 286653 (eA*eA*eA*e[5mC]*e[5mC]*dA*dT*d[5mC]*dA*dT*dT*dT*d[5mC]*dT*d[5mC]*eT*eG*e[5mC]*eA*eA; antisense) [compound 286653] | 58% |
| gatattctgttaggatccat (eG*eA*eT*eA*eT*dT*d[5mC]*dT*dG*dT*dT*dA*dG*dG*dA*eT*e[5mC]*e[5mC]*eA*eT; antisense) [ISIS 286597, 2′-MOE gapmer targeted to rat RANKL] | at least 40% |
| ggtacttgccgtagtctcgg (antisense eG*eG*eT*eA*e[5mC]*dT*dT*dG*d[5mC]*d[5mC]*dG*dT*dA*dG*dT*e[5mC]*eT*e[5mC]*eG*eG) [ISIS 286586, 2′-MOE gapmer targeted to rat RANKL] | at least 40% |
| 286646 (antisense eT*eT*eT*eT*eG*dT*dA*d[5mC]*dA*dA*d[5mC]*dG*dT*dG*dG*eG*e[5mC]*e[5mC]*eA*e[5mC]) [compound 286646] | 53% |
| 286596 (antisense eT*e[5mC]*eT*eG*eT*dT*dA*dG*dG*dA*dT*d[5mC]*d[5mC]*dA*dT*e[5mC]*eT*eG*e[5mC]*eG) [compound 286596] | 58% |
| 286623 (antisense eT*eA*eA*eT*eA*dG*dA*dA*dG*d[5mC]*d[5mC]*dA*dT*d[5mC]*dT*eT*eG*eG*eT*eT) [compound 286623] | 16% |
